Test results as given in publication PMC9925730, “Controlled sequential in situ self-assembly and disassembly of a fluorogenic cisplatin prodrug for cancer theranostics” (Nature Communications, 2023).
Values joined by “and” are separate entries in the source; they are usually repeats but may differ in a detail not shown here. Identical values can stand only once.

Assay: Blood circulation half-life (ICP-OES of Pt)
Assay type: in vivo, mice
Details: for blood circulation half-life t1/2: mice, i.v., 2.25 mg kg-1 Pt
Excerpt: Scale bar: 100 μm. The occurrence of hepatotoxicity in […]-treated mice could be presumably owing to (1) the large size of […] (~160 nm) that caused a high liver uptake and (2) the fast release of cytotoxic cisplatin from the liver-resided […] by hepatic GSH that led to a high concentration of cisplatin in the liver. One representative experiment out of two is shown. 30 PBS CDDP Pt IV NP sP- Cy Pt 20 10 0 013 619 25 Days Supplementary Figure 34. Monitoring of the body weight of mice with orthotopic HepG2/Luc liver tumors following indicated treatments. […] Values denote mean ± s.d. (n = 4 independent animals). 120 CDDP Pt IV NP s […] 40 0 0 25510 2015 Time (h) Supplementary Figure 35. Examination of the blood circulation half-lives of […], and CDDP. Plots of the relative amount of Pt (%) in the blood after i.v. injection of […], and CDDP (at a dose of 2.25 mg kg-1 Pt) into healthy mice. Data are mean ± s.d. (n = 3 independent animals). […] 0.23 h). […] The residues were then diluted with 5 mL 2% HNO3 and 5% HCl solution, and the concentrations of Pt element were determined by ICP-OES, which were further applied to calculate the contents of Pt element in the blood. The plot of the percentage of Pt element remained in the blood versus injection time to yield the pharmacokinetic time. Urine and Faeces analysis. […] Urine and faeces were collected at 2 (for 0-2 h), 4 (for 2-4 h), 8 (for 4- 8 h) and 12 h (for […]), which were diluted in methanol and centrifuged at 3,600 × g for 10 min, followed by filtering via a 0.22 μm syringe filter. The solutions were analyzed by HPLC (660 nm detection) to characterize all the mCy-containing compounds. Using the established standard curves for […] Cy-COOH, the amount of each compound in the urine and faeces could be calculated, which were further applied to determine the percentage of them in the urine and faeces. The data were summarized in Supplementary Tables 5-8. […] Urine and faeces were collected and weighed. The urine and faeces were digested with concentrated HNO3 (65~70%) and HCl (36~38%) at 90 °C for 24 h. The solution was diluted to 5 mL 2% HNO3 and 5% HCl solution, and the concentration of Pt element was measured by ICP-OES, which was further applied to calculate the percentage of Pt in corresponding urine and faeces. The data were summarized in Supplementary Tables 9 and 10. 47

| Compound | Relative Pt amount in blood (Time 0 h, individual mice) | Relative Pt amount in blood (Time 0 h, mean of 3 mice) | Relative Pt amount in blood (Time 0.5 h, individual mice) | Relative Pt amount in blood (Time 0.5 h, mean of 3 mice) | Relative Pt amount in blood (Time 1 h, individual mice) | Relative Pt amount in blood (Time 1 h, mean of 3 mice) | Relative Pt amount in blood (Time 2 h, individual mice) | Relative Pt amount in blood (Time 2 h, mean of 3 mice) | Relative Pt amount in blood (Time 4 h, individual mice) | Relative Pt amount in blood (Time 4 h, mean of 3 mice) | Relative Pt amount in blood (Time 8 h, individual mice) | Relative Pt amount in blood (Time 8 h, mean of 3 mice) | Relative Pt amount in blood (Time 12 h, individual mice) | Relative Pt amount in blood (Time 12 h, mean of 3 mice) | Relative Pt amount in blood (Time 24 h, individual mice) | Relative Pt amount in blood (Time 24 h, mean of 3 mice) | blood circulation half-life t1/2 |
| --- | --- | --- | --- | --- | --- | --- | --- | --- | --- | --- | --- | --- | --- | --- | --- | --- | --- |
| [NH2][Pt]([NH2])([Cl])[Cl] [CDDP, cisplatin] | 93.8305 and 92.1406 and 114.029 | 100 | 57.2961 and 52.6288 and 39.5118 | 49.8122 | 22.492 and 12.6341 and 19.9651 | 18.3637 | 7.725 and 8.771 and 6.76 | 7.752 | 2.808 and 1.569 and 2.181 | 2.186 | 1.408 and 0.5955 and 1.521 | 1.175 | 1.746 and 1.28 and 0.8611 | 1.2956 | 1.634 and 0.8852 and 0.6518 | 1.057 | 43.8 ± 2.4 min |
| CC1(C)C(/C=C/C2=C3Oc4cc(OP(=O)(O)O)c(Cl)cc4C=C3CCC2)=[N+](CCCNC(=O)[C@@H](Cc2ccccc2)NC(=O)[C@@H](Cc2ccccc2)NC(=O)CCC(=O)[O][Pt]([NH2])([NH2])([OH])([Cl])[Cl])c2ccccc21 [P-CyPt] | 89.0517 and 110.783 and 100.165 | 100 | 75.3589 and 72.0355 and 86.1448 | 77.8464 | 48.6558 and 63.4564 and 58.4934 | 56.8685 | 21.7134 and 35.2733 and 24.195 | 27.0606 | 12.3988 and 8.818 and 6.257 | 9.158 | 7.923 and 5.247 and 4.422 | 5.864 | 4.1743 and 2.189 and 3.164 | 3.176 | 1.657 and 1.56 and 1.79 | 1.669 | 32.4 ± 3.6 min |
